{
  "source": "patent US12527773B2",
  "about": "“Flavi-block: a pan-flavivirus inhibitor” (Baden-Württemberg Stiftung GmbH, priority 2020, dated 2026)",
  "key": {"[1]": {"system": "VP1 polyomavirus, LP1 HPV16, p24 HIV, BSA, GFP", "test": "Specificity in the cross-linking assay: other capsid and non-related proteins", "format": "biochemical", "protocol": "DSS was included as a positive control.\nTo study the specificity of C10, capsid proteins of other viruses (VP1 polyomavirus, LP1 HPV16, and p24 HIV) as well as non-related proteins (BSA, GFP), were incubated in the so-called cross-linking assay, with DSS or C10."}, "KUNV": {"system": "KUNV", "test": "RT-qPCR analysis of virus genomes, KUNV", "format": "cell-based, Kunjin virus", "settings": "West Nile virus", "protocol": "(§1) Vero cells were infected with KUNV at an MOI of 1 for 2 h (post infection), after which virus was removed, and fresh maintenance medium containing 2% FCS together with the indicated concentration of C10 added. For co-treat condition, Vero cells were infected with KUNV at an MOI of 1 in the presence of C10 for 2 h, followed by removal of the virus/C10 inoculums, and addition of fresh 2% fetal calf serum maintenance medium.\n(§2) Viral RNA was extracted using Isolate II RNA extraction kit (Bioline), and the absolute number of RNA copies determined by Taqman One Step RT-qPCR (Applied Biosystems) by extrapolation from a standard curve generated from in vitro—transcribed virus RNA.\n(§3) It was decided to test the ability of C10 to inhibit the flaviviruses DENV1-4, KUNV and ZIKV, in addition to the paramyxovirus RSV, as a control."}, "DENV2 [2]": {"system": "DENV2", "test": "Plaque assay of released virus, DENV2-infected Vero cells", "format": "cell-based", "settings": "Dengue virus", "protocol": "as §1, with “DENV1-4” for “KUNV”, “infection, p.i., (A)),” for “infection),”, “condition (c.t., (B)),” for “condition,”, “medium. […] Results represent the mean ±SD for duplicate wells from a single assay, representative of 2 independent experiments (cf. Tables 2A and 2B, infra, for pooled data).” for “medium.”\n(§4) Vero and BHK-21 cells were maintained in DMEM media supplemented with 10% heat-inactivated FBS at 37° C. in a humidified incubator supplemented with 5% CO2; A549 cells were maintained in F-12K medium supplemented with 10% heat-inactivated Fetal Bovine Serum (FBS), 2 mM L-glutamine, 50 U/I penicillin, 0.05 mg/l streptomycin. […] Viral titer was subsequently determined by plaque assay (see below).\n(§5) Vero cells were seeded into 24-well plates at a density of 2×10^5 cells/well and grown overnight in culture medium at 37° C. with 5% CO2 prior to infection with RSV, KUNV, ZIKV as indicated. […] The stain was removed by rinsing the cells with tap water, and the viral plaques were counted visually. […]"}, "Huh7.5 cells": {"system": "Huh7.5 cells", "test": "Viability of treated Huh7.5 cells by MTT assay", "format": "cell-based", "settings": "10 μM, 24 h after treatment", "protocol": "Huh7.5 cells were electroporated with HCV-JC1-Luc (reporter virus expressing luciferase via IRES) RNA and treated 24 h later with the best 20 candidates (10 μM). After another 24 h the supernatants were harvested. To quantify infectious particles, untreated Huh7.5 cells were inoculated with the supernatants and 36 h later the luciferase activity was measured. The viability of the same cells was determined 24 h after treatment with inhibitor by MTT assay (tetrazolium salt which is reduced in metabolically active cells resulting in a color change). For both parameters, 100% corresponds to the release or viability of the untreated or DMSO treated control. uninf.=not infected; untr.=not treated. Mean values and SD were derived from n =3 independent infections.\nThe viability of the same cells was determined 24 h after treatment with the candidate substances by MTT assay (tetrazolium salt reduced in metabolically active cells resulting in a color change) (FIG. 2). For both parameters, 100% of release or viability corresponds to the untreated or DMSO-treated control."}, "DENV2 [3]": {"system": "DENV2", "test": "RT-qPCR analysis of virus genomes, DENV2", "format": "cell-based", "settings": "Dengue virus", "protocol": "as §1, with “DENV1-4” for “KUNV”, “infection, p.i., (A)),” for “infection),”, “condition (c.t., (B)),” for “condition,”, “medium. […] Results represent the mean ±SD for duplicate wells from a single assay, representative of 2 independent experiments (cf. Tables 2A and 2B, infra, for pooled data).” for “medium.”\nas §2, §3"}, "DENV4": {"system": "DENV4", "test": "Plaque assay of released virus, DENV4-infected Vero cells", "format": "cell-based", "settings": "Dengue virus", "protocol": "as §1, with “DENV1-4” for “KUNV”, “infection, p.i., (A)),” for “infection),”, “condition (c.t., (B)),” for “condition,”, “medium. […] Results represent the mean ±SD for duplicate wells from a single assay, representative of 2 independent experiments (cf. Tables 2A and 2B, infra, for pooled data).” for “medium.”\nas §4, §5"}, "[4]": {"system": "hematopoietic stem cell formation", "test": "Effect on zebrafish hematopoietic stem cell formation (in situ runx-1+c-myb)", "format": "in vivo", "settings": "36 hpf", "protocol": "Zebrafish embryos were exposed 20-30 min after fertilization to differing concentrations of the compounds C10 and D1 (5 μM; 15 μM; 25 μM) or to medium containing the corresponding solvent (DMSO) concentration. Therefore, 3-5 embryos were sorted into each of three wells of a 96 well plate containing 200 μl of medium. For phenotype analysis, triplicates were imaged after 6-7 h post fertilization (hpf) at approximately shield stage, after 24 hpf and after 48 hpf. Dead +unfertilized embryos were removed. For imaging at 24 hpf +48 hpf; embryos were anesthetized using MESAB. (A) Diagramm showing the percentage of embryos at each time point either developing normal (blue color) or with the indicated phenotype. (B) representative images of embryos treated with the indicated compounds, or controls at the respective time points. (C) To additionally elucidate the influence on hematopoietic stem cell formation, approx. half of the embryos were sampled at 36 hpf and an in situ staining for runx-1+c-myb was performed. Shown are representative images of hematopoietic stem cell formation with the treatment indicated.\nEmbryos were exposed 20-30 min after fertilization to differing concentrations of the compounds C10 and D1 (5 μM; 15 μM; 25 μM) or to medium containing the corresponding solvent (DMSO) concentration. […]"}},
  "note": "Read-outs that look alike come from different tables or passages of the source.",
  "data": [
    {"smiles": "CCN1/C(=C\\C=C\\c2sc3cc(NC(C)=O)ccc3[n+]2CC)Sc2cc(NC(C)=O)ccc21.[I-]", "note": "[C10, 6-acetamido-2-((1E,3E)-3-(6-acetamido-3-ethylbenzo[d]thiazol-2(3H)-ylidene)prop-1-en-1-yl)-3-ethylbenzo[d]thiazol-3-ium iodide]", "values": [
      {"measurement": "crosslinking effect on other capsid and non-related proteins", "setting": "[1]", "result": "either no effect on these proteins or it starts at concentrations around 200 times higher than the IC50"},
      {"measurement": "EC50", "setting": "KUNV; read-out: EC50 from RT-qPCR analysis, KUNV, c.t.", "result": "0.31 ± 0.18", "unit": "µM"},
      {"measurement": "EC50", "setting": "KUNV; read-out: EC50 from RT-qPCR analysis, KUNV, p.i.", "result": "1.68 ± 0.64", "unit": "µM"},
      {"measurement": "EC50", "setting": "DENV2 [2]; read-out: EC50 from plaque assays, DENV2, c.t.", "result": 0.04, "unit": "µM"},
      {"measurement": "EC50", "setting": "DENV2 [2]; read-out: EC50 from plaque assays, DENV2, p.i.", "result": 1.3, "unit": "µM"},
      {"measurement": "cell viability (MTT)", "setting": "Huh7.5 cells", "result": "no negative effect on cell viability"},
      {"measurement": "EC50", "setting": "DENV2 [3]; DENV2, read-out: EC50 from RT-qPCR analysis, DENV2, c.t.", "result": 0.2, "unit": "µM"},
      {"measurement": "EC50", "setting": "DENV2 [3]; DENV2, read-out: EC50 from RT-qPCR analysis, DENV2, p.i.", "result": "0.81 ± 0.48", "unit": "µM"},
      {"measurement": "EC50", "setting": "DENV4; read-out: EC50 from plaque assays, DENV4, c.t.", "result": 0.05, "unit": "µM"},
      {"measurement": "EC50", "setting": "DENV4; read-out: EC50 from plaque assays, DENV4, p.i.", "result": 0.79, "unit": "µM"},
      {"measurement": "hematopoietic stem cell formation", "setting": "[4]", "result": "no difference to the WT embryos"}
    ]}
  ]
}
